Bridge positions count the residues as written; N and C are the ends. Square brackets hold non-standard residues; d marks the D form. Peptide text beside a SMILES is read from it. * marks the point of attachment. ξ: configuration not given here. Phe(4-COOH) = N[C@@H](Cc1ccc(C(=O)O)cc1)C(=O)O; Bip = N[C@@H](Cc1ccc(-c2ccccc2)cc1)C(=O)O; NH(CH2)14COOH = O=C(O)CCCCCCCCCCCCCCN*; Phe(3-Me) = Cc1cccc(C[C@H](N)C(=O)O)c1; Val(3-OH) = CC(C)(O)[C@H](N)C(=O)O; hArg = N=C(N)NCCCC[C@H](N)C(=O)O; 4Pal = N[C@@H](Cc1ccncc1)C(=O)O; Abu(4-CN) = N#CCC[C@H](N)C(=O)O; Cha = N[C@@H](CC1CCCCC1)C(=O)O; Cit = NC(=O)NCCC[C@H](N)C(=O)O; Thr(3ξ) = CC(O)[C@H](N)C(=O)O; 12Ado = NCCCCCCCCCCCC(=O)O; Carboxymethyl = O=C(O)C*; Orn = NCCC[C@H](N)C(=O)O; Pra = C#CC[C@H](N)C(=O)O; Aun = NCCCCCCCCCCC(=O)O; Dab = NCC[C@H](N)C(=O)O; Dap = NC[C@H](N)C(=O)O; AEEA = NCCOCCOCC(=O)O

T1 sequence (Q15116 25-288): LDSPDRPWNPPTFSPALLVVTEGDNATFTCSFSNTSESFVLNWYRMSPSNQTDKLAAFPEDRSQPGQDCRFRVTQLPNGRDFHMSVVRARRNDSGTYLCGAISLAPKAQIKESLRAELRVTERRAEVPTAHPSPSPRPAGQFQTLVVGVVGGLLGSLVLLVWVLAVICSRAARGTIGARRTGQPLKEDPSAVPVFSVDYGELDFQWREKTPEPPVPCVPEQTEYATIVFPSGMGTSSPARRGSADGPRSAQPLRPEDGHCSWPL

The assay concerns the target T1, PD-1/PD-L1 interaction (PE-labeled human PD-L1-Ig binding to Jurkat cell line over-expressing human PD-1) (Homo sapiens, UniProt Q15116).
T1 construct: expressed in transfected cells; host or cells: Jurkat
Description: Jurkat-PD-1 Cell Binding High-Content Screening Assay (CBA). The note with it: Jurkat cell line over-expressing human PD-1; PE-labeled PD-L1-Ig 20 nM final; read-out: Jurkat hPD1-PDL1 IC50. Format: cell-based. As to the method:
Example 2: Jurkat-PD-1 Cell Binding High-Content Screening Assay (CBA)
Phycoerythrin (PE) was covalently linked to the Ig epitope tag of human PD-L1-Ig and fluorescently-labeled PD-L1-Ig was used for binding studies with a Jurkat cell line over-expressing human PD-1 (Jurkat-PD-1). Briefly, 8×10^3 Jurkat-hPD-1 cells were seeded into 384 well plates in 20 μl of DMEM supplemented with 10% fetal calf serum. 100 nl of compound was added to cells followed by incubation at 37° C. for 2 h. Then, 5 μl of PE-labeled PD-L1-Ig (20 nM final), diluted in DMEM supplemented with 10% fetal calf serum. After 1 hour incubation, cells were fixed with 4% paraformaldehyde in dPBS containing 10 μg/ml Hoechst 33342 and then washed 3× in 100 μl dPBS. Data was collected and processed using a Cell Insight NXT High Content Imager and associated software.
Usually IC50 stands for the point on the concentration scale where inhibition reaches its midpoint. In the case of `CC(C)C[C@H]1NC(=O)[C@H](CCCN)NC(=O)[C@H](C(C)C)NC(=O)[C@H](Cc2ccc(-c3ccccc3)cc2)NC(=O)[C@H](C(C)C)NC(=O)[C@H](Cc2c[nH]c3ccccc23)NC(=O)[C@H](CC(=O)O)NC(=O)[C@H](Cc2ccc(OCC(=O)O)cc2)NC(=O)[C@H](CN)NC(=O)CSC[C@@H](C(=O)NCCOCCOCC(=O)N[C@@H](CN)C(=O)NCCCCCCCCCCC(=O)O)NC(=O)[C@H]([C@@H](C)O)NC(=O)[C@H](C(C)C)NC(=O)[C@H](CC2CCCCC2)NC(=O)[C@H](Cc2cnc[nH]2)NC1=O` [Compound 1095] ({CH2CO}-[Dap]Y(Carboxymethyl)DWV[Bip]V[Orn][dL]H[Cha]VTC[AEEA][Dap][Aun]-OH; thioether N-14), the half-inhibitory concentration (IC50) was 15.7 nM.

Take `CC(C)C[C@H]1NC(=O)[C@H](CCCN)NC(=O)[C@H](C(C)C)NC(=O)[C@H](Cc2ccc(-c3ccccc3)cc2)NC(=O)[C@H](C(C)C)NC(=O)[C@H](Cc2c[nH]c3ccccc23)NC(=O)[C@H](CC(=O)O)NC(=O)[C@H](Cc2ccc(OCC(=O)O)cc2)NC(=O)[C@H](CCCCNC(=N)N)NC(=O)CSC[C@@H](C(=O)N[C@@H](CCCNC(N)=O)C(=O)NCCOCCOCC(=O)NCCCCCCCCCCC(=O)O)NC(=O)[C@H](CCCN)NC(=O)[C@H](C(C)C)NC(=O)[C@H](CC2CCCCC2)NC(=O)[C@H](CC(N)=O)NC1=O` [Compound 3218] ({CH2CO}-[hArg]Y(Carboxymethyl)DWV[Bip]V[Orn][dL]N[Cha]V[Orn]C[Cit][AEEA][Aun]-OH; thioether N-14): the IC50 is 26.9 nM.

For `CC(C)C[C@H]1NC(=O)[C@H](CCCN)NC(=O)[C@H](Cc2ccc(O)cc2)NC(=O)[C@H](Cc2ccc(-c3ccccc3)cc2)NC(=O)[C@H](C(C)C)NC(=O)[C@H](Cc2c[nH]c3ccccc23)NC(=O)[C@H](CC(=O)O)NC(=O)[C@H](Cc2ccc(OCC(=O)O)cc2)NC(=O)[C@H](CCCNC(=N)N)NC(=O)CSC[C@@H](C(=O)N[C@@H](CCN)C(=O)NCCCCCCCCCCC(=O)O)NC(=O)[C@H](CCC#N)NC(=O)[C@H](C(C)C)NC(=O)[C@H](CC2CCCCC2)NC(=O)[C@H](CCN)NC1=O` [Compound 3418] ({CH2CO}-RY(Carboxymethyl)DWV[Bip]Y[Orn][dL][Dab][Cha]V[Abu(4-CN)]C[Dab][Aun]-OH; thioether N-14), the half-inhibitory concentration (IC50) was 36.2 nM.

Regarding `C#CC[C@H](NC(=O)COCCOCCNC(=O)[C@@H]1CSCC(=O)N[C@@H](Cc2ccncc2)C(=O)N[C@@H](Cc2ccc(OCC(=O)O)cc2)C(=O)N[C@@H](CC(=O)O)C(=O)N[C@@H](Cc2c[nH]c3ccccc23)C(=O)N[C@@H](C(C)C)C(=O)N[C@@H](Cc2ccc(-c3ccccc3)cc2)C(=O)N[C@@H]([C@@H](C)CC)C(=O)N[C@@H](CCCN)C(=O)N[C@H](CC(C)C)C(=O)N[C@@H](CCN)C(=O)N[C@@H](CC(C)C)C(=O)N[C@@H](C(C)C)C(=O)N[C@@H]([C@@H](C)O)C(=O)N1)C(=O)N[C@@H](Cc1cnc[nH]1)C(=O)NCCCCCCCCCCC(=O)O` [Compound 1216] ({CH2CO}-[4Pal]Y(Carboxymethyl)DWV[Bip]I[Orn][dL][Dab]LVTC[AEEA][Pra]H[Aun]-OH; thioether N-14), the IC50 turned out to be 16.5 nM.

For `CC(C)C[C@H]1NC(=O)[C@H](CCCN)NC(=O)[C@H](C(C)C)NC(=O)[C@H](Cc2ccc(-c3ccccc3)cc2)NC(=O)[C@H](C(C)C)NC(=O)[C@H](Cc2c[nH]c3ccccc23)NC(=O)[C@H](CC(=O)O)NC(=O)[C@H](Cc2ccc(OCC(=O)O)cc2)NC(=O)[C@H](CN)NC(=O)CSC[C@@H](C(=O)N[C@@H](CCN)C(=O)NCCCCCCCCCCC(=O)O)NC(=O)[C@@H](CCC(N)=O)NC(=O)[C@H](C(C)C)NC(=O)[C@H](CC2CCCCC2)NC(=O)[C@H](Cc2c[nH]cn2)NC1=O` [Compound 2795] ({CH2CO}-[Dap]Y(Carboxymethyl)DWV[Bip]V[Orn][dL]H[Cha]V[dQ]C[Dab][Aun]-OH; thioether N-14), the concentration for half-maximal inhibition (IC50) stood at 63.4 nM.

Take `Cc1cccc(C[C@@H]2NC(=O)[C@H](CC(=O)O)NC(=O)[C@H](Cc3ccc(OCC(=O)O)cc3)NC(=O)[C@H](CCCCNC(=N)N)NC(=O)CSC[C@@H](C(=O)N[C@@H](CCCN)C(=O)N[C@@H](CO)C(=O)NCCCCCCCCCCCC(=O)O)NC(=O)[C@H](C(C)O)NC(=O)[C@H](C(C)C)NC(=O)[C@H](CC3CCCCC3)NC(=O)[C@H](CCN)NC(=O)[C@@H](CC(C)C)NC(=O)[C@H](CCCN)NC(=O)[C@H](CCCNC(=N)N)NC(=O)[C@H](Cc3ccc(-c4ccccc4)cc3)NC(=O)[C@H](C(C)C)NC2=O)c1` (stereo partly drawn) [Compound 3575] ({CH2CO}-[hArg]Y(Carboxymethyl)D[Phe(3-Me)]V[Bip]R[Orn][dL][Dab][Cha]V[Thr(3ξ)]C[Orn]S[12Ado]-OH; thioether N-14): the IC50 stood at 32.3 nM.

With `CC(C)C[C@H]1NC(=O)[C@H](CCCN)NC(=O)[C@H](C(C)C)NC(=O)[C@H](Cc2ccc(-c3ccccc3)cc2)NC(=O)[C@H](C(C)C)NC(=O)[C@H](Cc2c[nH]c3ccccc23)NC(=O)[C@H](CC(=O)O)NC(=O)[C@H](Cc2ccc(OCC(=O)O)cc2)NC(=O)[C@H](C(C)O)NC(=O)CSC[C@@H](C(=O)NCCOCCOCC(=O)N[C@@H](CCCCN)C(=O)NCCCCCCCCCCC(=O)O)NC(=O)[C@H](C(C)O)NC(=O)[C@H](C(C)C)NC(=O)[C@H](CC2CCCCC2)NC(=O)[C@H](CCN)NC1=O` (stereo partly drawn) [Compound 3052] ({CH2CO}-[Thr(3ξ)]Y(Carboxymethyl)DWV[Bip]V[Orn][dL][Dab][Cha]V[Thr(3ξ)]C[AEEA]K[Aun]-OH; thioether N-14), the IC50 was determined as 10.1 nM.

In the case of `Cc1cccc(C[C@@H]2NC(=O)[C@H](CC(=O)O)NC(=O)[C@H](Cc3ccc(C(=O)O)cc3)NC(=O)[C@H](CCCN)NC(=O)CSC[C@@H](C(=O)N[C@@H](CCN)C(=O)NCCOCCOCC(=O)NCCOCCOCC(=O)N[C@@H](CCC(=O)O)C(=O)N[C@@H](CC(=O)NCCCCCCCCCCCCCCC(=O)O)C(=O)O)NC(=O)[C@H](Cc3cnc[nH]3)NC(=O)[C@H](C(C)(C)O)NC(=O)[C@H](CC3CCCCC3)NC(=O)[C@H](CCN)NC(=O)[C@@H](CC(C)C)NC(=O)[C@H](CCCN)NC(=O)[C@H](Cc3ccc(C(=O)O)cc3)NC(=O)[C@H](Cc3ccc(-c4ccccc4)cc3)NC(=O)[C@H](Cc3ccc(C(=O)O)cc3)NC2=O)c1` [Compound 3887] ({CH2CO}-[Orn][Phe(4-COOH)]D[Phe(3-Me)][Phe(4-COOH)][Bip][Phe(4-COOH)][Orn][dL][Dab][Cha][Val(3-OH)]HC[Dab][AEEA][AEEA]ED(NH(CH2)14COOH)-OH; thioether N-14), the IC50 is 56.3 nM.

As for `Cc1cccc(C[C@@H]2NC(=O)[C@H](CC(=O)O)NC(=O)[C@H](Cc3ccc(OCC(=O)O)cc3)NC(=O)[C@H](C(C)O)NC(=O)CSC[C@@H](C(=O)N[C@@H](CCN)C(=O)NCCOCCOCC(=O)NCCCCCCCCCCC(=O)O)NC(=O)[C@H](CCCCN)NC(=O)[C@H](C(C)C)NC(=O)[C@H](CC3CCCCC3)NC(=O)[C@H](CCN)NC(=O)[C@@H](CC(C)C)NC(=O)[C@H](CCCN)NC(=O)[C@H](Cc3ccc(O)cc3)NC(=O)[C@H](Cc3ccc(-c4ccccc4)cc3)NC(=O)[C@H](Cc3ccc(O)cc3)NC2=O)c1` (stereo partly drawn) [Compound 3607] ({CH2CO}-[Thr(3ξ)]Y(Carboxymethyl)D[Phe(3-Me)]Y[Bip]Y[Orn][dL][Dab][Cha]VKC[Dab][AEEA][Aun]-OH; thioether N-14), the IC50 was 11.8 nM.

For `Cc1cccc(C[C@@H]2NC(=O)[C@H](CC(=O)O)NC(=O)[C@H](Cc3ccc(OCC(=O)O)cc3)NC(=O)[C@H](CN)NC(=O)CSC[C@@H](C(=O)N[C@@H](CCCCN)C(=O)NCCOCCOCC(=O)NCCCCCCCCCCC(=O)O)NC(=O)[C@H](CN)NC(=O)[C@H](C(C)C)NC(=O)[C@H](CC3CCCCC3)NC(=O)[C@H](CCN)NC(=O)[C@@H](CC(C)C)NC(=O)[C@H](CCCN)NC(=O)[C@H](C(C)C)NC(=O)[C@H](Cc3ccc(-c4ccccc4)cc3)NC(=O)[C@H](C(C)C)NC2=O)c1` [Compound 2526] ({CH2CO}-[Dap]Y(Carboxymethyl)D[Phe(3-Me)]V[Bip]V[Orn][dL][Dab][Cha]V[Dap]CK[AEEA][Aun]-OH; thioether N-14), the IC50 was found to be 7.2 nM.

Turning to `CC(C)C[C@H]1NC(=O)[C@H](CCCN)NC(=O)[C@H](C(C)C)NC(=O)[C@H](Cc2ccc(-c3ccccc3)cc2)NC(=O)[C@H](C(C)C)NC(=O)[C@H](Cc2c[nH]c3ccccc23)NC(=O)[C@H](CC(=O)O)NC(=O)[C@H](Cc2ccc(OCC(=O)O)cc2)NC(=O)[C@H](CN)NC(=O)CSC[C@@H](C(=O)N[C@@H](CCN)C(=O)NCCCCCCCCCCC(=O)O)NC(=O)[C@H](CCCCN)NC(=O)[C@H](C(C)O)NC(=O)[C@H](CC2CCCCC2)NC(=O)[C@H](CCN)NC1=O` (stereo partly drawn) [Compound 3648] ({CH2CO}-[Dap]Y(Carboxymethyl)DWV[Bip]V[Orn][dL][Dab][Cha][Thr(3ξ)]KC[Dab][Aun]-OH; thioether N-14), the IC50 stood at 21.5 nM.

Consider `Cc1cccc(C[C@@H]2NC(=O)[C@H](CC(=O)O)NC(=O)[C@H](Cc3ccc(OCC(=O)O)cc3)NC(=O)[C@H](C(C)O)NC(=O)CSC[C@@H](C(=O)N[C@@H](CCN)C(=O)NCCCCCCCCCCC(=O)O)NC(=O)[C@H](C(C)O)NC(=O)[C@H](C(C)C)NC(=O)[C@H](CC3CCCCC3)NC(=O)[C@H](CCN)NC(=O)[C@@H](CC(C)C)NC(=O)[C@H](CCCN)NC(=O)[C@H](CCCNC(N)=O)NC(=O)[C@H](Cc3ccc(-c4ccccc4)cc3)NC(=O)[C@H](C(C)C)NC2=O)c1` (stereo partly drawn) [Compound 3458] ({CH2CO}-[Thr(3ξ)]Y(Carboxymethyl)D[Phe(3-Me)]V[Bip][Cit][Orn][dL][Dab][Cha]V[Thr(3ξ)]C[Dab][Aun]-OH; thioether N-14), for which the concentration for half-maximal inhibition (IC50) was found to be 18.4 nM.

(Values after patent US20260022142A1, “MACROCYCLIC IMMUNOMODULATORS” (Bristol-Myers Squibb Company, priority 2022, published 2026).)
